The values that follow come from patent US5589510A, “Method for inhibiting retroviral infection by administering a naphthalenesulfonic acid compound” (priority 1995, dated 1996).

In data set [1] the test system is TA98, TA1535, TA1537, TA1538, TA100 and W2P2uvr. The data set can be described thus: Ames Test (in the presence of S9). Type of data set: cell-based, Salmonella typhimurium. The settings on record: for Ames Test, specific mutagenic activity: the higher the value, the higher the mutagenicity. The text has this: Six Salmonella typhimuriumstrai strains, TA98, TA1535, TA1537, TA1538, TA100 and W2P2uvr were used in this experiment.

A short description of data set [2]: LD50, intravenous, mice. Type of data set: in vivo. Conditions: mouse, in vivo, female mice, mortalities within 1 week. How it is done:
The test material was administered intravenously to 5 female mice in five increasing doses. Mortalities were recorded within 1 week, and the LD50 was determined with the aid of statistical calculations.

Data set [3] deals with HIV-1 RF. Put plainly: Antiviral assay, Experimental Protocol II (virus incubated with compound before cells). The data set is classed as cell-based. Conditions: Human immunodeficiency virus 1, 240 h, 10% FCS, p24 ELISA, read-out: % Inhibition (after day 10); for inhibition at 1.25 µg/mL: 1.25 μg/ml; for inhibition at 2.5 µg/mL: 2.5 μg/ml; for inhibition at 5 µg/mL: 5 μg/ml. For orientation: In an ELISA, binding on a coated surface is turned into a signal by an enzyme label.

For data set [4], the target named is T1, recombinant reverse transcriptase (RT) (Human immunodeficiency virus type 1 group M subtype B, UniProt P04585).
T1 construct: purchased Worthington Biochemical Corporation
The data set can be described thus: Reverse transcriptase inhibition assay. The data set is classed as biochemical, HIV-1. On the procedure: Inhibition of recombinant reverse transcriptase (RT) was performed by using commercially available Boehringer Mannheim RT assay kit (Cat. No. 1468 120) based on incorporation of digoxigenin labeled dUTP into DNA. Recombinant enzyme from HIV-1 was purchased from Worthington Biochemical Corporation. The level of anti-RT activity in the sample was determined by measurement of absorbance using an ELISA reader at 405 nm.

In data set [5] the test system is HIV-1 RF. Put plainly: Antiviral assay, Experimental Protocol I (compound added after infection). The data set is classed as cell-based. Conditions: Human immunodeficiency virus 1, 240 h, p24 ELISA, read-out: % Inhibition (after day 10); for inhibition at 0.3 µg/mL: 0.3 μg/ml; for inhibition at 0.6 µg/mL: 0.6 μg/ml; for inhibition at 1.25 µg/mL: 1.25 μg/ml; for inhibition at 2.5 µg/mL: 2.5 μg/ml; for inhibition at 5 µg/mL: 5 μg/ml. On the procedure: HIV-1 infectivity studies were conducted in CEM, H9, MT2 cells and peripheral blood mononuclear cells (PBMC). CEM, H9 and MT2 were grown in RPMI1640 medium, 10% heat-inactivated fetal bovine serum (FBS). PBMCs were stimulated with 4 μg/ml PHA for 48 hours in RPMI1640, 10% FBS before HIV-1 infection. After HIV-1 infection, PBMCs were maintained in RPMI 1640, 10% FBS and 10 10 units/ml IL-2. The major HIV-1 isolates used were MN, IIIB, SF2, AZT-sensitive A018 and AZT-resistant A018 provided by NIH AIDS research and reference reagent program. Two major antiviral assays were developed to determine the antiviral activities of the compounds of this invention (as inhibitors).
I. The cells were infected with HIV-1 RF or IIIB at an infectivity multiplicity (moi) of 0.001 in the absence of a compound of this invention for one hour. HIV-1 infected cells were washed once with PBS, resuspended in RPMI1640, 10% FBS medium and distributed in 24-well culture dishes (5×10^5 cells per well) in the presence of a compound of this invention as inhibitor. […]

For data set [6], the system named is HIV-1 patient isolate IH. Put plainly: Inhibition of HIV-1 patient isolate IH in PBMCs. Type of data set: cell-based. The settings on record: Human immunodeficiency virus 1, PBMC, 288 h, read-out: % Inhibition (after day 12); for inhibition at 2.5 µg/mL: 2.5 μg/ml; for inhibition at 5 µg/mL: 5 μg/ml; for inhibition at 10 µg/mL: 10 μg/ml; for inhibition at 20 µg/mL: 20 μg/ml. On the procedure:
(§1) The inhibitory effects of additional naphthalenesulfonic acid compounds were tested as follows: Experimental Details:
PBMCs were activated for 48 hours in conditioned medium containing PHA at a concentration of 4 μg/ml. […] The test compound, previously dissolved in a glucose solution (1 mg/ml), was then added to each of the wells to achieve the appropriate concentration. The plate was then incubated overnight (about 15 hours) after which 50 μl of cell-free HIV-1 patient isolate was added to each well. The plates were incubated for further 6 to 8 hours after which all free floating solution of virus was washed off. Washing was performed four times.
(§2) After removal of the virus, all cultures were resuspended in conditioned medium containing 10% FCS.
(§3) For control experiments virus growth was monitored in either 10% FCS or 50% FCS throughout the observation period (15 days).

Data set [7] has as its system HIV-1 patient isolate NIH 900285. Put plainly: Inhibition of HIV-1 patient isolate NIH 900285 in PBMCs. The data set is classed as cell-based. Conditions: Human immunodeficiency virus 1, PBMC, 288 h, 10% FCS, read-out: % Inhibition (after day 12); for inhibition at 1 µg/mL: 1.0 μg/ml; for inhibition at 2.5 µg/mL: 2.5 μg/ml; for inhibition at 5 µg/mL: 5 μg/ml. How it is done:
as §1
PBMCs were activated for 48 hours in conditioned medium containing PHA at a concentration of 4 μg/ml. Thereafter 10^6 cells were plated in each of the 24 well plates containing 10% FCS or 50% FCS. The test compound, previously dissolved in a glucose solution (1 mg/ml), was then added to each of the wells to achieve the appropriate concentration. The plate was then incubated overnight (about 15 hours) after which 50 μl of cell-free HIV-1 patient isolate was added to each well. The plates were incubated for further 6 to 8 hours after which all free floating solution of virus was washed off. Washing was performed four times.
as §2, §3

Data set [8] relates to HIV-1 RF strain. The data set can be described thus: SCID mouse model (SCID-hu mice infected with HIV-1). Type of data set: in vivo. How it is done: Immunodeficient CB-17 SCID (severe combined immunodeficient) mice were reconstituted with human peripheral blood cells (Scid-hu). Two weeks after engraftment, the presence of human IgG indicating the presence of functional T and B cells was confirmed. Four weeks after engraftment, SCID-hu mice were infected with 10^6 tissue culture infectious doses/ml (TCID) of RF strain by ip injection.
Twenty-four hours after infection, 8 infected mice were treated daily with Compound 6 aqueous 5% glucose solution by ip injection at a dose of 50 mg/kg for only five days. The same dose of D-(+)-glucose was injected into SCID hu mice as a control. One month after final ip dose, peritoneal cells from the mice were cocultured with human lymphocytes. After four weeks, cultures were scored for the production of virus by assaying HIV-1 p24 levels in the supernatant. […] On the other hand, 5 of the 8 control mice had cultivated virus.

“And” between values parts separate entries of the source, which are not always exact repeats. Identical values can stand only once. Like-named read-outs stand apart in the source and are kept apart here.

As a reminder, the LD50 is the dose expected to kill half of the subjects tested. A word on the inhibition: it is the drop in the measured response relative to a control, in per cent. Turning to `CCC(C)(C)c1ccc(OCC(=O)Nc2cc(S(=O)(=O)O)cc3cc(S(=O)(=O)O)c(N=Nc4cc(OC)c(N=Nc5c(S(=O)(=O)O)cc6cc(S(=O)(=O)O)cc(NC(=O)c7ccc(Cl)cc7Cl)c6c5O)cc4OC)c(O)c23)c(C(C)(C)CC)c1` [Compound 15], the “Ames Test result” value in data set [1] was “Negative”. This molecule displayed an LD50 at 168 h in data set [2] of 150 mg/kg. In addition, in data set [3], the inhibition at 1.25 µg/mL is 61%, the inhibition at 2.5 µg/mL is 89% and the inhibition at 5 µg/mL worked out at 100%.
Regarding `COc1cc(N=Nc2c(S(=O)(=O)O)cc3cc(S(=O)(=O)O)cc(NC(=O)c4ccc(Cl)cc4Cl)c3c2O)c(OC)cc1N=Nc1c(S(=O)(=O)O)cc2cc(S(=O)(=O)O)cc(NC(=O)c3ccc(Cl)cc3Cl)c2c1O` [Compound 11], in data set [1], the “Ames Test result” value is recorded as “Positive” and the “Ames Test, specific mutagenic activity” value was 0.02 colony no/μg. The molecule further gave an LD50 at 168 h in data set [2] of 160 mg/kg. Also, the inhibition at 0.5 µM in data set [4] is 30%. In addition, in data set [5] (10% FCS), the inhibition at 0.3 µg/mL came out at 99%, the inhibition at 0.6 µg/mL amounted to 100%, the inhibition at 1.25 µg/mL worked out at 100% and the inhibition at 2.5 µg/mL stood at 100%. Besides, in data set [5] (10% FCS), the inhibition at 5 µg/mL stood at 100%. In data set [5] (50% Human Serum), the inhibition at 0.6 µg/mL was determined as 55%, the inhibition at 1.25 µg/mL was 87%, the inhibition at 2.5 µg/mL was 93% and the inhibition at 5 µg/mL came to 98%. In data set [6] (10% FCS), the inhibition at 2.5 µg/mL turned out to be 0%, the inhibition at 5 µg/mL is 0%, the inhibition at 10 µg/mL stood at 100% and the inhibition at 20 µg/mL was found to be 100%. Moreover, in data set [6] (50% Human Serum), the inhibition at 2.5 µg/mL was 0%, the inhibition at 5 µg/mL worked out at 0%, the inhibition at 10 µg/mL is 31% and the inhibition at 20 µg/mL amounted to 100%.
Consider `CCOc1cc(N=Nc2c(S(=O)(=O)O)cc3cc(S(=O)(=O)O)cc(NC(=O)c4cccc(Cl)c4Cl)c3c2O)c(OCC)cc1N=Nc1c(S(=O)(=O)O)cc2cc(S(=O)(=O)O)cc(NC(=O)c3ccc(Cl)cc3Cl)c2c1O` [Compound 28], for which, in data set [1], the “Ames Test result” value is given as “Negative”. In data set [5] (10% FCS), the inhibition at 1.25 µg/mL came to 100%, the inhibition at 2.5 µg/mL was found to be 100% and the inhibition at 5 µg/mL worked out at 100%. For the same molecule, in data set [7], the inhibition at 1 µg/mL worked out at 0%, the inhibition at 2.5 µg/mL is 67% and the inhibition at 5 µg/mL came to 98%.
For `COc1cc(N=Nc2c(S(=O)(=O)O)cc3cc(S(=O)(=O)O)cc(NC(=O)c4cc(Cl)cc(Cl)c4)c3c2O)c(OC)cc1N=Nc1c(S(=O)(=O)O)cc2cc(S(=O)(=O)O)cc(NC(=O)Cc3ccccc3)c2c1O` [Compound 14], in data set [1], the “Ames Test result” value is on record as “Positive” and the “Ames Test, specific mutagenic activity” value is reported as 0.12 colony no/μg. This molecule also displayed an LD50 at 168 h in data set [2] of 160 mg/kg. Moreover, in data set [3], the inhibition at 1.25 µg/mL stood at 50%, the inhibition at 2.5 µg/mL came to 56% and the inhibition at 5 µg/mL was found to be 98%.
As to `CCCCCCC(=O)Nc1cc(S(=O)(=O)O)cc2cc(S(=O)(=O)O)c(N=Nc3cc(OC)c(N=Nc4c(S(=O)(=O)O)cc5cc(S(=O)(=O)O)cc(NC(=O)Cc6ccccc6)c5c4O)cc3OC)c(O)c12` [Compound 17], the “Ames Test result” value in data set [1] is “Negative”. The LD50 at 168 h in data set [2] worked out at 130 mg/kg. Also, in data set [3], the inhibition at 1.25 µg/mL worked out at 72%, the inhibition at 2.5 µg/mL was 98% and the inhibition at 5 µg/mL was found to be 100%.
For `COc1cc(N=Nc2c(S(=O)(=O)O)cc3cc(S(=O)(=O)O)cc(NC(=O)c4cccc(Cl)c4Cl)c3c2O)c(OC)cc1N=Nc1c(S(=O)(=O)O)cc2cc(S(=O)(=O)O)cc(NC(=O)c3ccc(Cl)cc3Cl)c2c1O` [Compound 6], the “Ames Test result” value in data set [1] was “Negative”. Besides, in data set [2], the LD50 at 168 h amounted to 130 mg/kg. For the same molecule, the inhibition at 0.5 µM in data set [4] was determined as 32%. Moreover, the inhibition at 5 µM in data set [4] (at 5.0 μM) amounted to 80%. For the same molecule, in data set [5] (10% FCS), the inhibition at 0.3 µg/mL was 99%, the inhibition at 0.6 µg/mL is 100%, the inhibition at 1.25 µg/mL was found to be 100% and the inhibition at 2.5 µg/mL stood at 100%. Moreover, in data set [5] (10% FCS), the inhibition at 5 µg/mL amounted to 100%. In data set [5] (50% Human Serum), the inhibition at 0.6 µg/mL came out at 63%, the inhibition at 1.25 µg/mL was found to be 64%, the inhibition at 2.5 µg/mL worked out at 99% and the inhibition at 5 µg/mL was 100%. In addition, in data set [6] (10% FCS), the inhibition at 2.5 µg/mL was 0%, the inhibition at 5 µg/mL stood at 91%, the inhibition at 10 µg/mL came out at 82% and the inhibition at 20 µg/mL was 100%. In addition, in data set [6] (50% Human Serum), the inhibition at 2.5 µg/mL was 13%, the inhibition at 5 µg/mL came to 80%, the inhibition at 10 µg/mL was 90% and the inhibition at 20 µg/mL was found to be 100%. Further, in data set [7], the inhibition at 1 µg/mL was determined as 0%, the inhibition at 2.5 µg/mL came out at 95% and the inhibition at 5 µg/mL is 99%. In addition, in data set [8] (SCID-hu mice, 50 mg/kg ip daily for five days), the “detectable HIV specific p24 in mice” value is listed as “none of the 8 mice receiving Compound 6 had any detectable HIV specific p24 above the background of the no virus control”. In data set [8] (SCID-hu mice, 50 mg/kg ip daily for five days, one value per mouse, coculture supernatant, 50 mg/kg), the “P24 Day 28” value was 46.36 pg/mL and 35.44 pg/mL and 32.61 pg/mL and 40.90 pg/mL and 34.41 pg/mL and 34.36 pg/mL and 49.46 pg/mL and 58.02 pg/mL. In data set [8] (treatment for 5 days), the “prevention of infection of reconstituted human immune cells” value is given as “sufficient to prevent infection of reconstituted human immune cells in an animal model”.
